Source: ChEMBL document CHEMBL4406889, “The identification and pharmacological evaluation of potent, selective and orally available ACC1 inhibitor” (Bioorg Med Chem Lett, 2019)

What was measured:
in vitro [1] = details: human, liver microsomes
Description: Metabolic stability in human Liver microsomes

in vitro [2] = details: PAMPA, pH 7.4
Description: Permeability of compound at pH 7.4 by PAMPA assay

in vivo [3] = details: ICR, mouse, po, 1 mg/kg
Description: MRT in ICR mouse at 1 mg/kg, po

in vivo [4] = details: ICR, mouse, iv, 0.1 mg/kg
Description: Half life in ICR mouse at 0.1 mg/kg, iv

in vivo [5] = details: ICR, mouse, po, 1 mg/kg; remark: listed apart in the source
in vitro [6] = details: mouse, liver microsomes
Description: Metabolic stability in mouse Liver microsomes

in vivo [7] = details: ICR, mouse, iv, 0.1 mg/kg; remark: listed apart in the source
Acetyl-CoA carboxylase 2 [8] = biological target: Acetyl-CoA carboxylase 2 (Mus musculus, UniProt E9Q4Z2); test: biochemical
Sequence of Acetyl-CoA carboxylase 2 (Mus musculus, UniProt E9Q4Z2) (E9Q4Z2 whole entry): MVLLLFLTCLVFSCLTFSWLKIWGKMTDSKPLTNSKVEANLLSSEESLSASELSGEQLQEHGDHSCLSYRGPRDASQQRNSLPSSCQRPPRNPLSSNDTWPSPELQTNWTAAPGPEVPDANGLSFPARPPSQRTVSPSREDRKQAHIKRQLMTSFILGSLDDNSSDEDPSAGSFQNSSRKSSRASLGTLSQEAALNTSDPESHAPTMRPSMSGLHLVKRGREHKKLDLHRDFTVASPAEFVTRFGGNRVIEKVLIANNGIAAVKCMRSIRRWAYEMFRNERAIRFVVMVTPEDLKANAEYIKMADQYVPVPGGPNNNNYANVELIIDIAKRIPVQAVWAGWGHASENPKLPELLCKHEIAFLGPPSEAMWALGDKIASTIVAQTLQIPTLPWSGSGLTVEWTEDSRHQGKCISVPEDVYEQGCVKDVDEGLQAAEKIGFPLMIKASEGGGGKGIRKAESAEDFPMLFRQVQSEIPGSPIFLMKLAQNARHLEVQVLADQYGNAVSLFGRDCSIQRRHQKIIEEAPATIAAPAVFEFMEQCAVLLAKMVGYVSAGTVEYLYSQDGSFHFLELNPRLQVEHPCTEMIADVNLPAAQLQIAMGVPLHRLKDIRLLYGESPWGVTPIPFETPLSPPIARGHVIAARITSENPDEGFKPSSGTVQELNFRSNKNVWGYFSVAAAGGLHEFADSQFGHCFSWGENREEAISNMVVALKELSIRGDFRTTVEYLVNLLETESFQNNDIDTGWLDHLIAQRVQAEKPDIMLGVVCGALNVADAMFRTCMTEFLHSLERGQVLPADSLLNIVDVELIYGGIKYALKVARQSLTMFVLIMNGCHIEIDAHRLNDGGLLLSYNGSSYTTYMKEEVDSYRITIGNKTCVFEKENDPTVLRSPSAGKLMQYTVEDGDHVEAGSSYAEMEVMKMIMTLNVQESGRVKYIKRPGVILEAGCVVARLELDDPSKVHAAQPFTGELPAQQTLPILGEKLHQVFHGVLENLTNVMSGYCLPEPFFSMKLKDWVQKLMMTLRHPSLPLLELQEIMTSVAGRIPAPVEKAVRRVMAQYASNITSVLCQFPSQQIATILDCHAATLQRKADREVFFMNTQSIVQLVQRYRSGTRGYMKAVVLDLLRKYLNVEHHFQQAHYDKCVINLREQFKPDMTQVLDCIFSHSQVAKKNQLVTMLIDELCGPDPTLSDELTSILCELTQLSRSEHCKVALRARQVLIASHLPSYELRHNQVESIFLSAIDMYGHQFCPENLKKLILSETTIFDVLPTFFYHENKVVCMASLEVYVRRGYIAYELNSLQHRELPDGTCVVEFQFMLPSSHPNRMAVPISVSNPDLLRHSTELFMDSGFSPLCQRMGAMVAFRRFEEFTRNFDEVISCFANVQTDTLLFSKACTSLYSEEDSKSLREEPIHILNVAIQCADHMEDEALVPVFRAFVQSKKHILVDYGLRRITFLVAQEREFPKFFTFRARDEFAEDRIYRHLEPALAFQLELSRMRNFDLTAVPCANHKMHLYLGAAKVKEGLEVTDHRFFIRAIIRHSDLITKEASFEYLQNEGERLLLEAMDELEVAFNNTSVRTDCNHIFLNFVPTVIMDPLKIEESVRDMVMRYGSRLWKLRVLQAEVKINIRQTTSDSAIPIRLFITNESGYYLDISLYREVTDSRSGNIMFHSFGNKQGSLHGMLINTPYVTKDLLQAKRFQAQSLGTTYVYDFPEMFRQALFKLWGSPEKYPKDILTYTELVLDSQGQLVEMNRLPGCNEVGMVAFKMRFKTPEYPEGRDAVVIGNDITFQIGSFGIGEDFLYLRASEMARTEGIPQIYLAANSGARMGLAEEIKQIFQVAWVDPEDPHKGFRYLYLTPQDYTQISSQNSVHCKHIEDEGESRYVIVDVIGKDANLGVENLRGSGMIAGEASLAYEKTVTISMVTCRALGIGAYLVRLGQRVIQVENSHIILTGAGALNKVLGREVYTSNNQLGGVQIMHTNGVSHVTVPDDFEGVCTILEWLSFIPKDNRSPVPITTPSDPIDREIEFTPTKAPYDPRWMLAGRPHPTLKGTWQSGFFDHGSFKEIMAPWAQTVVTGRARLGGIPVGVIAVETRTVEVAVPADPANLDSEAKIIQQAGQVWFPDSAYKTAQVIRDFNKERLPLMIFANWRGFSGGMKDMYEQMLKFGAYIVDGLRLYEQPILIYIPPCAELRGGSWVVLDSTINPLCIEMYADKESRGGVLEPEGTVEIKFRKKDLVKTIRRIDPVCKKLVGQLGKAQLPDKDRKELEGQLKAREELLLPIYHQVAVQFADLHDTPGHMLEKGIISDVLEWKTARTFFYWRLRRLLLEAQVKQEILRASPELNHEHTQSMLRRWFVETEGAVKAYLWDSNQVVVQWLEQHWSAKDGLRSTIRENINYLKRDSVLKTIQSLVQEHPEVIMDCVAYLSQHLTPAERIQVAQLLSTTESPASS
Description: Inhibition of mouse His-tagged ACC2 expressed in baculovirus infected SF9 cells using acetyl-CoA as substrate incubated for 60 mins followed by substrate addition and measured after 30 mins Rapidfire-Mass spectrometry

in vivo [9] = details: ICR, mouse, po, 1 mg/kg; remark: listed apart in the source
Acetyl-CoA carboxylase 1 [10] = biological target: Acetyl-CoA carboxylase 1 (Mus musculus, UniProt Q5SWU9); test: biochemical
Description: Inhibition of mouse His-tagged ACC1 expressed in baculovirus infected SF9 cells using acetyl-CoA as substrate incubated for 60 mins followed by substrate addition and measured after 30 mins Rapidfire-Mass spectrometry

in vivo [11] = details: ICR, mouse, iv, 0.1 mg/kg; remark: listed apart in the source
Description: Clearance in ICR mouse at 0.1 mg/kg, iv

in vivo [12] = details: ICR, mouse, iv, 0.1 mg/kg; remark: listed apart in the source
Description: Volume of distribution at steady state in ICR mouse at 0.1 mg/kg, iv

in vitro [13] = details: PAMPA, pH 5
Description: Permeability of compound at pH 5 by PAMPA assay

Acetyl-CoA carboxylase 2 [14] = biological target: Acetyl-CoA carboxylase 2 (Homo sapiens, UniProt O00763); test: biochemical
Sequence of Acetyl-CoA carboxylase 2 (Homo sapiens, UniProt O00763) (O00763 whole entry): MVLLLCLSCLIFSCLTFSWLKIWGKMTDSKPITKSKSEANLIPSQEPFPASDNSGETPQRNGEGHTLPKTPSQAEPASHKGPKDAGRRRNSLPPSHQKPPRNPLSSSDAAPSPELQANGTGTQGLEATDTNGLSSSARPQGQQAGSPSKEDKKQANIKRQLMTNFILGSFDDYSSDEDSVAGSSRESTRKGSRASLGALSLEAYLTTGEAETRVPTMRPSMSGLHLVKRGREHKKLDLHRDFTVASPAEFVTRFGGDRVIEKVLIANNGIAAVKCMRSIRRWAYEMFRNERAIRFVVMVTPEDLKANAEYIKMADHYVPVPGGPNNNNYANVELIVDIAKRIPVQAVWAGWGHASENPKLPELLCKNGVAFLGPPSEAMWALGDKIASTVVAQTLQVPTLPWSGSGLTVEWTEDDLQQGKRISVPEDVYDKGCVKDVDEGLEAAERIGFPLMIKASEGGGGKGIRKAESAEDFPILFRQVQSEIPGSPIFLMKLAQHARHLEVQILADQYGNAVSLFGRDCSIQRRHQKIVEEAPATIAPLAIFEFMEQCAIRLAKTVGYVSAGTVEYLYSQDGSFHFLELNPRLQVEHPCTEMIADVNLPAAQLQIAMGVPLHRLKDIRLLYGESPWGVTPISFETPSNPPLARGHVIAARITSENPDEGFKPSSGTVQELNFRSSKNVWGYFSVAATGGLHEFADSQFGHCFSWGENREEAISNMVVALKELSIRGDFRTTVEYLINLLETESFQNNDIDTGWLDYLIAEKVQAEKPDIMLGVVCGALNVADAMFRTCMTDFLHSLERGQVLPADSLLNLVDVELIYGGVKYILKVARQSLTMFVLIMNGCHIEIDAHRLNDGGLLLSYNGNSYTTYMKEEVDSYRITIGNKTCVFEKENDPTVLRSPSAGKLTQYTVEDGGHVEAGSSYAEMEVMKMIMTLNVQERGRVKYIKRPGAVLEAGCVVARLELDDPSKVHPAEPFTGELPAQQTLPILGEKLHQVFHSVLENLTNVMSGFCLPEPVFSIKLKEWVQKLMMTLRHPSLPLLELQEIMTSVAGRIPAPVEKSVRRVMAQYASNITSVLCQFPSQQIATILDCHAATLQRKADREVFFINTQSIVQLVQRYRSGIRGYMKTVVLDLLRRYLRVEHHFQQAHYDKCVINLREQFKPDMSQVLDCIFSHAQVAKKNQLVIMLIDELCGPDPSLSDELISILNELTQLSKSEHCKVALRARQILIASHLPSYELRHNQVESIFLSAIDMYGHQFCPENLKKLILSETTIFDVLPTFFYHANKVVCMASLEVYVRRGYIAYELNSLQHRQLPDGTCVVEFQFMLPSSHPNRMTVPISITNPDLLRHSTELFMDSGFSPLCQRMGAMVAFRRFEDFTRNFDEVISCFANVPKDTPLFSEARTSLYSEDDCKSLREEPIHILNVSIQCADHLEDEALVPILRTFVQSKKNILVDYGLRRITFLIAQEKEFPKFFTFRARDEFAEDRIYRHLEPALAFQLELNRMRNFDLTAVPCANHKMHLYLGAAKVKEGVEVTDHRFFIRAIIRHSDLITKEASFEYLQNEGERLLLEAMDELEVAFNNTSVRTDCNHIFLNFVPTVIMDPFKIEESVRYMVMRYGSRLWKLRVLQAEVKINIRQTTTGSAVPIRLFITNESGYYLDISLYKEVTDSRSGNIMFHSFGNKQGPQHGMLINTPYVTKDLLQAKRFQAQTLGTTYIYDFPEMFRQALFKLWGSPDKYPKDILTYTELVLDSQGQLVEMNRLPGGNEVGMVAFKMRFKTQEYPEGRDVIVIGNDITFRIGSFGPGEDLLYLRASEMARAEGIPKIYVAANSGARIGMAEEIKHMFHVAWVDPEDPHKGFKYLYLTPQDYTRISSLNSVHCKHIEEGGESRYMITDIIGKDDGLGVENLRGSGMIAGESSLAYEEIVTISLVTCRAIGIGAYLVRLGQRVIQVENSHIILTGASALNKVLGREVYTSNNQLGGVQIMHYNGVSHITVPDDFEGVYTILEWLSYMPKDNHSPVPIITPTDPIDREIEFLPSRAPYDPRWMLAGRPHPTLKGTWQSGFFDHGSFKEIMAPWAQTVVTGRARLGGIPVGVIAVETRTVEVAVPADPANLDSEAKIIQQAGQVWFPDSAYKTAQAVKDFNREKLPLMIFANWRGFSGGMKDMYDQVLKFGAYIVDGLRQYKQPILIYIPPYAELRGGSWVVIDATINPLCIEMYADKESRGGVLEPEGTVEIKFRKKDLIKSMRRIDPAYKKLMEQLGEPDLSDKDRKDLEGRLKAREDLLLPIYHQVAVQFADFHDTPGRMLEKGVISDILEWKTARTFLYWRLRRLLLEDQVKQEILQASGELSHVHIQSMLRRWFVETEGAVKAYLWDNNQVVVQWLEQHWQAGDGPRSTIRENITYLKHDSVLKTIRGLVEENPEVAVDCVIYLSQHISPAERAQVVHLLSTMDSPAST
Description: Inhibition of recombinant human His-tagged ACC2 expressed in baculovirus infected SF9 cells using acetyl-CoA as substrate incubated for 60 mins followed by substrate addition and measured after 30 mins Rapidfire-Mass spectrometry

Acetyl-CoA carboxylase 1 [15] = biological target: Acetyl-CoA carboxylase 1 (Homo sapiens, UniProt Q13085); test: biochemical
Description: Inhibition of recombinant human His-tagged ACC1 expressed in baculovirus infected SF9 cells using acetyl-CoA as substrate incubated for 60 mins followed by substrate addition and measured after 30 mins Rapidfire-Mass spectrometry

## CC(=O)NC(C)c1ccc2nc(-c3ccc(Oc4cccc(OCC5CC5)c4)nc3)oc2c1 (configuration not stated)
In vitro [1]
  microsomal CLint: 27 µL/min/mg
In vitro [2]
  Papp: 33.7 ×10⁻⁶ cm/s
In vivo [3]
  MRT: 3.69 h
In vivo [4]
  half-life: > 8 h
In vivo [5]
  bioavailability: 60.6%
In vitro [6]
  microsomal CLint: 65 µL/min/mg
In vivo [7]
  Cmax: 1110 ng/mL
Acetyl-CoA carboxylase 2 [8]
  IC50: 36 nM
In vivo [9]
  AUC(0-t) at 8 h: 6880 ng·h/mL
Acetyl-CoA carboxylase 1 [10]
  IC50: 0.18 nM
In vivo [11]
  clearance: 1.47 mL/min/kg
In vivo [12]
  Vd: 0.269 L/kg
In vitro [13]
  Papp: 27.2 ×10⁻⁶ cm/s

## CC(NC(=O)N(C)C)c1ccc2nc(-c3ccc(Oc4cccc(OCC5CC5)c4)nc3)oc2c1 (configuration not stated)
Acetyl-CoA carboxylase 2 [14]
  IC50: 80 nM
Acetyl-CoA carboxylase 1 [15]
  IC50: 2.1 nM

## CNC(=O)NC(C)c1ccc2nc(-c3ccc(Oc4cccc(OCC5CC5)c4)nc3)oc2c1 (configuration not stated)
Acetyl-CoA carboxylase 2 [14]
  IC50: 77 nM
Acetyl-CoA carboxylase 1 [15]
  IC50: 3.8 nM
